Results published in PubChem BioAssay (NCI).
Values joined by “and” are separate entries in the source; they are usually repeats but may differ in a detail not shown here. Equal entries are not always repeated.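 96-well plates; 48 h exposure; 5 concentrations. Endpoints by linear interpolation between flanking doses. Not reached: highest tested concentration assigned. Abbreviation: GI50, concentration required for 50% inhibition of growth. At the TGI there is no net growth.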

Key:
Experiment in all cases: NCI anticancer screen, dose series, 48 h
SK-MEL-28 melanoma = tested on: SK-MEL-28 melanoma
OVCAR-5 ovarian = tested on: OVCAR-5 ovarian
HT29 colon = tested on: HT29 colon
SK-MEL-2 melanoma = tested on: SK-MEL-2 melanoma
SF-268 CNS = tested on: SF-268 CNS
K-562 leukemia = tested on: K-562 leukemia
HOP-62 NSCLC = tested on: HOP-62 NSCLC
UO-31 renal = tested on: UO-31 renal
OVCAR-3 ovarian = tested on: OVCAR-3 ovarian
LOX IMVI melanoma = tested on: LOX IMVI melanoma

SMILES	TGI (SK-MEL-28 melanoma)	TGI (OVCAR-5 ovarian)	TGI (HT29 colon)	TGI (SK-MEL-2 melanoma)	TGI (SF-268 CNS)	TGI (K-562 leukemia)	TGI (HOP-62 NSCLC)	TGI (UO-31 renal)	TGI (OVCAR-3 ovarian)	TGI (LOX IMVI melanoma)	GI50 (SK-MEL-28 melanoma)	GI50 (OVCAR-5 ovarian)	GI50 (HT29 colon)	GI50 (SK-MEL-2 melanoma)	GI50 (LOX IMVI melanoma)	GI50 (K-562 leukemia)	GI50 (HOP-62 NSCLC) [µM]	GI50 (UO-31 renal)	GI50 (SF-268 CNS)	GI50 (OVCAR-3 ovarian)
Cc1cc(CC(O)c2ccc(Cl)c(Cl)c2)nc(=O)[nH]1 (stereo unspecified)	> 100 µM	> 100 µM	> 100 µM	> 100 µM	> 100 µM	> 100 µM	86.5 µM	> 100 µM	> 100 µM	–	–	–	–	–	–	–	–	–	–	–
CCOc1ccccc1C=C1c2ccccc2C(=O)c2ccccc21	> 100 µM	> 100 µM	–	11.9 µM	> 100 µM	> 100 µM	36.3 µM	13.6 µM	10.5 µM	> 100 µM	–	–	–	–	–	–	–	–	–	–
CCN(CC)CCOc1ccc(-c2nc3cc(Cl)ccc3s2)cc1	3.94 µM	3.09 µM	1.84 µM	3.59 µM	–	> 100 µM	3.25 µM	3.37 µM	–	2.68 µM	1.99 µM	1.6 µM	0.6 µM	1.89 µM	1.39 µM	1.26 µM	1.74	1.66 µM	–	–
COc1ccc(C(=O)C(c2ccc(OC)cc2)C2(O)C(=O)Nc3ccc([N+](=O)[O-])cc32)cc1 (stereo unspecified)	> 100 µM	> 100 µM	> 100 µM	> 100 µM	> 100 µM	> 100 µM	> 100 µM	> 100 µM	> 100 µM	–	–	–	–	–	–	–	–	–	–	–
COc1cccc(/C=C/c2cc(OC)c(OC)c(OC)c2)c1	> 100 µM	> 100 µM	> 100 µM	> 100 µM	> 100 µM	> 100 µM	> 100 µM	> 100 µM	> 100 µM	–	–	–	–	–	–	–	–	–	–	–
CC(=O)Nc1ccc(C(=O)NN2C(=O)CSC2c2ccc([N+](=O)[O-])cc2)cc1 (stereo unspecified)	> 100 µM	> 100 µM	> 100 µM	> 100 µM	> 100 µM	> 100 µM	> 100 µM	> 100 µM	> 100 µM	–	–	–	–	–	–	–	–	–	–	–
Cc1nc2c(-c3cnc(N)nc3)nc(N3CCOCC3)nc2n1C(C)C	0.524 µM and 3.51 µM	> 3.48 µM	–	0.733 µM and 0.688 µM	> 100 µM	> 100 µM	3.5 µM and 0.772 µM	0.452 µM and 0.401 µM	1.64 µM and 1.92 µM	1.56 µM and 6.03 µM	–	–	–	–	–	1 µM and 0.661 µM	–	–	–	–
COC(=O)c1cc2c(s1)C(=O)c1ccccc1-2	> 100 µM	> 100 µM	–	> 100 µM	> 100 µM	> 100 µM	> 100 µM	> 100 µM	> 100 µM	> 100 µM	–	–	–	–	–	–	–	–	–	–
C=C1C(=O)OC2CCN3CC=C(COC(=O)C(C)(O)C4(CO4)C1C)C23 (stereo unspecified)	> 100 µM	–	> 100 µM	> 100 µM	> 100 µM	> 100 µM	–	> 100 µM	–	> 100 µM	–	–	–	–	–	–	–	–	–	–
S=C1NC2(CCCCCC2)NN1c1ccccc1	> 100 µM	> 100 µM	> 100 µM	–	> 100 µM	16.6 µM	> 22.7 µM	> 100 µM	> 100 µM	> 100 µM	–	–	–	–	–	–	–	–	–	–
COc1cc(N(CCC#N)CCC#N)ccc1/C(N=Nc1ccc([N+](=O)[O-])cc1)=N/NC(=O)c1cc(Br)ccc1O	> 150 µg/mL	> 150 µg/mL	105 µg/mL	> 150 µg/mL	78.7 µg/mL	> 150 µg/mL	–	> 150 µg/mL	76.2 µg/mL	110 µg/mL	80.6 µg/mL	50 µg/mL	43.5 µg/mL	44.2 µg/mL	29 µg/mL	63.1 µg/mL	–	48.4 µg/mL	19.3 µg/mL	30.9 µg/mL
CC(C)(C)CC(C)(C)c1cc2c(O)c(c1)Cc1cc(C(C)(C)CC(C)(C)C)cc(c1O)Cc1cc(C(C)(C)CC(C)(C)C)cc(c1O)Cc1cc(C(C)(C)CC(C)(C)C)cc(c1O)C2	> 100 µM	> 100 µM	> 100 µM	> 100 µM	> 100 µM	> 100 µM	> 100 µM	> 100 µM	> 100 µM	–	–	–	–	–	–	–	–	–	–	–
O=C1/C(=C/c2ccc(Br)cc2)COc2ccc(O)c(O)c21	3.25 µM	3.04 µM	5.79 µM	4.53 µM	3.4 µM	> 100 µM	–	1.07 µM	1.56 µM	0.807 µM	1.55 µM	1.5 µM	2.3 µM	1.69 µM	0.261 µM	0.282 µM	–	0.307 µM	1.26 µM	0.493 µM
Cn1c2c(c3ccccc31)C1CCCCCCC1C1C(=O)OC(=O)C21 (stereo unspecified)	> 100 µM	> 100 µM	> 100 µM	–	> 100 µM	75.3 µM	–	> 100 µM	47.8 µM	51.2 µM	–	–	–	–	–	–	–	–	–	–
C=CCCCCC/C=C\[C@H](O)C#CC#C/C=C/CO	> 100 µM	> 100 µM	> 100 µM	> 100 µM	70.5 µM	–	> 100 µM	> 100 µM	80.3 µM	29.9 µM	> 100 µM	43.3 µM	> 100 µM	83.3 µM	16.4 µM	–	> 100	61.9 µM	24.5 µM	31.7 µM
CC(C)c1ccc2c(c1)CC[C@@H]1[C@@](C)(C(=O)O)CCC[C@]21C	22.3 µM	25.6 µM	–	16.1 µM	–	9.2 µM	22.7 µM	12 µM	13.8 µM	16.8 µM	5.8 µM	5.49 µM	–	2.91 µM	3.43 µM	2.5 µM	10.8	2.76 µM	–	1.8 µM
CN(C)N=Nc1ccc(NC=O)cc1	> 100 µM	> 100 µM	> 100 µM	> 100 µM	–	> 100 µM	> 100 µM	> 100 µM	> 100 µM	> 100 µM	–	–	–	–	–	–	–	–	–	–
CCCCCCCCCCCCCC1=NC(C)(C)CN1C(C)C	3.11 µM	3.05 µM	1.47 µM	3.39 µM	3.14 µM	–	3.17 µM	2.69 µM	2.8 µM	–	1.74 µM	1.68 µM	0.422 µM	1.88 µM	–	–	1.73	1.39 µM	1.76 µM	1.48 µM
C=C(CNCc1ccccc1)c1ccc(C(=O)Nc2ccccc2N)cc1	> 100 µM	40.1 µM	–	> 100 µM	45.6 µM	> 100 µM	> 100 µM	18.2 µM	34.2 µM	8.88 µM	11.7 µM	14.4 µM	–	5.49 µM	2.45 µM	2.58 µM	4.57	3.64 µM	7.43 µM	7.31 µM
